Experimental data reported in ChEMBL document CHEMBL5441381, “ASAP - In vitro antiviral effect” (2024).

What was measured:
[1] = system: Middle East respiratory syndrome-related coronavirus; assay: microbe, parasite or virus in culture; format: functional, organism-based, Chlorocebus sabaeus, VeroE6/TMPRSS2; settings: Middle East respiratory syndrome-related coronavirus, VeroE6/TMPRSS2
[2] = system: SARS-CoV-2; assay: (§1) Functional immunofluorescence assay to measure dose dependent changes in antiviral-drug inhibitory efficacy against hCoV-19/USA-WA1/2020 in HeLa-ACE2 cells which are seeded prior to drug treatment, then infected with hCoV-19/USA-WA1/2020. Cells are fixed with 10 % formaldehyde, washed with PBS, permeabilized with permeabilization buffer, then washed with wash buffer. The cells are incubated with nucleoprotein primary antibody IC7C7. Following primary staining, cells are washed with wash buffer and incubated in a solution of with Alexa fluor 488 and DAPI. Infected and uninfected cells are visualized and analyzed by Gen5 software. The assay has been performed by Icahn School of Medicine at Mount Sinai.; format: organism-based, Homo sapiens
[3] = system: SARS-CoV-2; assay: as §1, with “iPSC-Pneumocyte” for “HeLa-ACE2”, “to” for “to drug”; format: organism-based, Homo sapiens; settings: Severe acute respiratory syndrome coronavirus 2, Pneumocyte; for EC90: Baseline response 0 %, Maximum response 100 %
[4] = system: Middle East respiratory syndrome-related coronavirus; assay: microbe, parasite or virus in culture; format: functional, organism-based, Chlorocebus sabaeus; settings: Vero 76
[5] = Severe acute respiratory syndrome coronavirus 2, HeLa-ACE2

Row | Compound | EC50 [1] [µM] | EC90 [1] [µM] | EC50 [2, 5] [µM] | EC50 [3] [µM] | further results
1 | Cn1ncc(-c2cc3c(N[C@@H](c4ccc5c(n4)OCCO5)C(C)(C)C)ncnc3[nH]2)c1C#N | > 5 | > 5 | 1.49 |  | EC90 ([2]; Severe acute respiratory syndrome coronavirus 2, HeLa-ACE2, Baseline response 0 %, Hill slope -0.781, Maximum measured 101.751 %, Maximum response 100 %, Minimum measured 4.671 %, R squared 0.23): > 20 µM; EC90 ([2]; Severe acute respiratory syndrome coronavirus 2, HeLa-ACE2, Baseline response 0 %, Hill slope -0.984, Maximum measured 108.122 %, Maximum response 100 %, Minimum measured 8.006 %, R squared 0.973): > 10 µM; EC50 ([2]; hela-ace2): 1.6 µM
2 | Cc1nn(C)cc1-c1cc2c(N[C@H](c3ccc4c(c3)S(=O)(=O)CCC4)C(C)C)ncnc2[nH]1 | > 5 | > 5 | > 20 |  | EC90 ([2]; Severe acute respiratory syndrome coronavirus 2, HeLa-ACE2, Baseline response 0 %, Hill slope -2.191, Maximum measured 111.189 %, Maximum response 100 %, Minimum measured 56.402 %, R squared 0.73): > 20 µM; EC90 ([2]; Severe acute respiratory syndrome coronavirus 2, HeLa-ACE2, Baseline response 0 %, Hill slope -5.449, Maximum measured 120.747 %, Maximum response 100 %, Minimum measured 82.491 %, R squared 0.099): > 20 µM
3 | CC(C)[C@@H](Nc1ncnc2[nH]c(C(=O)N[C@@H]3CCN(C)C3)cc12)c1ccc2c(c1)S(=O)(=O)CCC2 | > 5 | > 5 | > 20 | > 50 | EC90 ([3]; Hill slope -0.484, Maximum measured 101.646 %, Minimum measured 52.305 %, R squared 0.601): > 50 µM; EC90 ([2]; Severe acute respiratory syndrome coronavirus 2, HeLa-ACE2, Baseline response 0 %, Hill slope 0.166, Maximum measured 108.327 %, Maximum response 100 %, Minimum measured 87.557 %, R squared 0.011): > 20 µM; EC90 ([2]; Severe acute respiratory syndrome coronavirus 2, HeLa-ACE2, Baseline response 0 %, Hill slope -0.788, Maximum measured 109.068 %, Maximum response 100 %, Minimum measured 93.8 %, R squared 0.114): > 20 µM
4 | COc1ccc([C@H](Cc2nnn[nH]2)NC(=O)c2ncnc3[nH]ccc23)cc1 | > 5 | > 5 | > 20 |  | EC90 ([2]; Severe acute respiratory syndrome coronavirus 2, HeLa-ACE2, Baseline response 0 %, Hill slope -0.286, Maximum measured 116.588 %, Maximum response 100 %, Minimum measured 75.952 %, R squared 0.436): > 20 µM; EC90 ([2]; Severe acute respiratory syndrome coronavirus 2, HeLa-ACE2, Baseline response 0 %, Hill slope -1.346, Maximum measured 102.013 %, Maximum response 100 %, Minimum measured 88.847 %, R squared 0.139): > 20 µM
5 | CNCc1cc(-c2cc3c(N[C@@H](c4ccc5c(c4)S(=O)(=O)CCC5)C(C)C)ncnc3[nH]2)co1 | > 5 | > 5 | > 20 | 3.34 | EC90 ([3]; Hill slope -0.579, Maximum measured 92.989 %, Minimum measured 2.106 %, R squared 0.758): > 50 µM; EC90 ([2]; Severe acute respiratory syndrome coronavirus 2, HeLa-ACE2, Baseline response 0 %, Hill slope -1.471, Maximum measured 134.366 %, Maximum response 100 %, Minimum measured 28.123 %, R squared 0.287): > 20 µM; EC90 ([2]; Severe acute respiratory syndrome coronavirus 2, HeLa-ACE2, Baseline response 0 %, Hill slope -3.107, Maximum measured 113.346 %, Maximum response 100 %, Minimum measured 56.361 %, R squared 0.692): > 20 µM; EC50 ([2]; hela-ace2): 11.6 µM
6 | C[C@H](C(=O)O)[C@@H](NC(=O)c1ncnc2[nH]ccc12)c1ccc(Br)cc1 | > 5 | > 5 | > 20 |  | EC90 ([2]; Severe acute respiratory syndrome coronavirus 2, HeLa-ACE2, Baseline response 0 %, Hill slope -0.083, Maximum measured 104.611 %, Maximum response 100 %, Minimum measured 71.809 %, R squared 0.037): > 20 µM; EC90 ([2]; Severe acute respiratory syndrome coronavirus 2, HeLa-ACE2, Maximum measured 2742.07 %, Minimum measured 91.919 %): > 20 µM
7 | CNC(=O)Cn1cc(-c2cc3c(N[C@@H](c4ccc5c(c4)S(=O)(=O)CCC5)C(C)C)ncnc3[nH]2)cn1 | > 5 | > 5 | > 20 | > 50 | EC90 ([3]; Hill slope -7.964, Maximum measured 130.776 %, Minimum measured 73.915 %, R squared 0.151): > 50 µM; EC90 ([2]; Severe acute respiratory syndrome coronavirus 2, HeLa-ACE2, Baseline response 0 %, Hill slope 1.327, Maximum measured 117.537 %, Maximum response 100 %, Minimum measured 90.244 %, R squared 0.066): > 20 µM; EC90 ([2]; Severe acute respiratory syndrome coronavirus 2, HeLa-ACE2, Maximum measured 116.513 %, Minimum measured 98.017 %): > 20 µM
8 | CC(C)[C@@H](Nc1ncnc2[nH]c(-c3cnn(C)c3C#N)cc12)c1ccc2c(n1)OCCO2 | > 5 | > 5 |  | 12.7 | EC90 ([3]; EC90 CI (lower) 0 uM, EC90 CI (upper) 0 uM, Hill slope -10.753, Maximum measured 116.418 %, Minimum measured 5.314 %, R squared 0.553): 15.6 µM; EC90 ([2]; Baseline response 0 %, EC90 CI (lower) 0.252 uM, EC90 CI (upper) 0.378 uM, Hill slope -1.375, Maximum measured 105.062 %, Maximum response 100 %, Minimum measured 1.471 %, R squared 0.975): 7.55 µM; EC90 ([2]; Baseline response 0 %, EC90 CI (lower) 1.033 uM, EC90 CI (upper) 2.755 uM, Hill slope -2.587, Maximum measured 119.294 %, Maximum response 100 %, Minimum measured 1.653 %, R squared 0.93): 9.22 µM; EC90 ([2]; Severe acute respiratory syndrome coronavirus 2, HeLa-ACE2, Baseline response 0 %, Hill slope -24.486, Maximum measured 143.7 %, Maximum response 100 %, Minimum measured 4.604 %, R squared 0.738): 6.44 µM; EC90 ([2]; Severe acute respiratory syndrome coronavirus 2, HeLa-ACE2, Baseline response 0 %, EC90 CI (lower) 1.926 uM, EC90 CI (upper) 3.068 uM, Hill slope -3.008, Maximum measured 101.777 %, Maximum response 100 %, Minimum measured 4.949 %, R squared 0.988): 10.5 µM
9 | CNC(=O)c1c[nH]c2ncnc(N[C@H](c3ccc4c(c3)S(=O)(=O)CCC4)C(C)C)c12 |  |  | > 20 | 6.74 | EC90 ([3]; Hill slope -0.412, Maximum measured 88.736 %, Minimum measured 31.934 %, R squared 0.862): > 50 µM; EC90 ([2]; Severe acute respiratory syndrome coronavirus 2, HeLa-ACE2, Baseline response 0 %, Hill slope -10.584, Maximum measured 109.331 %, Maximum response 100 %, Minimum measured 66.391 %, R squared 0.561): > 20 µM; EC50 [4]: > 32 µM
